Experimental data published in US10538555B2, “Macrocyclic inhibitors of the PD-1/PD-L1 and CD80(B7-1)/PD-L1 protein/protein interactions” (BRISTOL-MYERS SQUIBB COMPANY, priority 2014, dated 2020).
Like-named read-outs stand apart in the source and are kept apart here. Where a SMILES comes first, the peptide text is derived from it. Bridges are numbered along the chain shown (N, C = ends). [ ]: non-standard residue; d: D form. ξ: configuration not given here. Trp(1-CH2COOH) = N[C@@H](Cc1cn(CC(=O)O)c2ccccc12)C(=O)O; Phe(3,4,5-F3) = N[C@@H](Cc1cc(F)c(F)c(F)c1)C(=O)O; NMePhe(4-Me) = CN[C@@H](Cc1ccc(C)cc1)C(=O)O; NMePhe(4-F) = CN[C@@H](Cc1ccc(F)cc1)C(=O)O; Phe(4-F) = N[C@@H](Cc1ccc(F)cc1)C(=O)O; Hyp = O=C(O)[C@@H]1C[C@@H](O)CN1; NMeF = CN[C@@H](Cc1ccccc1)C(=O)O; Thr(3ξ) = CC(O)[C@H](N)C(=O)O; NMeNle = CCCC[C@H](NC)C(=O)O; dPip = O=C(O)[C@H]1CCCCN1; NMeA = CN[C@@H](C)C(=O)O; Orn = NCCC[C@H](N)C(=O)O; Dab = NCC[C@H](N)C(=O)O; Dap = NC[C@H](N)C(=O)O; ξC = NC(CS)C(=O)O

Target: T1, Human PD-L1/PD-1 (Homo sapiens, UniProt Q9NZQ7)
T1 construct: TVMV protease cleavage site (C); made in house; host or cells: HEK293T cells
T1 sequence (Q9NZQ7 with tags, fused parts or gaps): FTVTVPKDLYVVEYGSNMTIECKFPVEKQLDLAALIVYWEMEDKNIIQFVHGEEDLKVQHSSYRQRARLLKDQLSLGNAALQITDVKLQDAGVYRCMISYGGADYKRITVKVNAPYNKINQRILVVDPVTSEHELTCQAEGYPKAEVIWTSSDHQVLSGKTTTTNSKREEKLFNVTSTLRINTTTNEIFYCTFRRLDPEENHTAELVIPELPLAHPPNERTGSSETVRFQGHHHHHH
Experiment: HTRF Human PD-L1/PD-1 binding assay (PD-1-Ig/PD-L1-His)
Conditions: PD-L1-His 10 nM, PD-1-Ig 20 nM
Summary of the method: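 HTRF competition using HEK293T-expressed human PD-1(25-167)-Ig at 20 nM and PD-L1(18-239)-His at 10 nM, compound incubated first with PD-L1 for 15 min, then with PD-1 for 15 min. Signal read as 665/620 nm ratio 30 min after adding Eu anti-Ig and APC anti-His antibodies.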

[1] = class symbol, read-out: HTRF Human PD-L1/PD-1 Binding Assay IC50 Range

CCCC[C@H]1C(=O)N2CCC[C@@H]2C(=O)N[C@@H](CCC(=O)O)C(=O)N[C@@H](C(C)C)C(=O)N(C)[C@@H](Cc2ccccc2)C(=O)N[C@@H](CCC(=O)O)C(=O)N2CCCC[C@@H]2C(=O)N[C@@H](Cc2c[nH]c3ccccc23)C(=O)N[C@@H](Cc2ccc(O)cc2)C(=O)N[C@@H](CC(C)C)C(=O)N[C@H](C(=O)NCC(N)=O)CSCC(=O)N[C@@H](Cc2cc(F)c(F)c(F)c2)C(=O)N(C)[C@@H](Cc2ccc(F)cc2)C(=O)N1C [Example 10576] ({CH2CO}-[Phe(3,4,5-F3)][NMePhe(4-F)][NMeNle][dP]EV[NMeF]E[dPip]WYLCG-NH2; thioether N-13)
IC50 [1]: 1 to 9.9 nM

CCCC[C@H]1C(=O)N2CCC[C@@H]2C(=O)N[C@@H](CC(=O)O)C(=O)N[C@@H](C(C)C)C(=O)N(C)[C@@H](Cc2ccc(C)cc2)C(=O)N[C@@H](CCC(=O)O)C(=O)N2CCC[C@@H]2C(=O)N[C@@H](Cc2c[nH]c3ccccc23)C(=O)N[C@@H](Cc2ccc(O)cc2)C(=O)N[C@@H](CC(C)C)C(=O)N[C@H](C(=O)NCC(N)=O)CSCC(=O)N[C@@H](Cc2ccc(F)cc2)C(=O)N(C)[C@@H](Cc2ccccc2)C(=O)N1C [Example 10115] ({CH2CO}-[Phe(4-F)][NMeF][NMeNle][dP]DV[NMePhe(4-Me)]E[dP]WYLCG-NH2; thioether N-13)
IC50 [1]: 100 to 990 nM

CCCC[C@H]1C(=O)N(C)[C@@H](CCCC)C(=O)N[C@@H](CC(C)C)C(=O)NC(C(=O)NCC(N)=O)CSCC(=O)N[C@@H](Cc2ccc(O)cc2)C(=O)N(C)[C@@H](C)C(=O)N[C@@H](CC(N)=O)C(=O)N2CCC[C@H]2C(=O)N[C@@H](CC(N)=O)C(=O)N[C@@H](CC(C)C)C(=O)N2CCC[C@H]2C(=O)N[C@@H](Cc2c[nH]c3ccccc23)C(=O)N[C@@H](CO)C(=O)N[C@@H](Cc2c[nH]c3ccccc23)C(=O)N1C (stereo partly drawn) [Example 9159] ({CH2CO}-Y[NMeA]NPNLPWSW[NMeNle][NMeNle]L[ξC]G-NH2; thioether N-14)
IC50 [1]: 1 to 9.9 nM

CCCC[C@H]1C(=O)N(C)[C@@H](CCCC)C(=O)N[C@@H](CCCN)C(=O)N[C@H](C(=O)NCC(N)=O)CSCC(=O)N[C@@H](Cc2ccc(OC)cc2)C(=O)N(C)[C@@H](C)C(=O)N[C@@H](CCN)C(=O)N2CCC[C@H]2C(=O)N[C@@H](Cc2cnc[nH]2)C(=O)N[C@@H](CCCCN)C(=O)N2C[C@H](O)C[C@H]2C(=O)N[C@@H](Cc2c[nH]c3ccccc23)C(=O)N[C@@H](CC(=O)O)C(=O)N[C@@H](Cc2c[nH]c3ccccc23)C(=O)N1C [Example 7107] ({CH2CO}-Y(Me)[NMeA][Dab]PHK[Hyp]WDW[NMeNle][NMeNle][Orn]CG-NH2; thioether N-14)
IC50 (read-out: HTRF Human PD-L1/PD-1 Binding Assay IC50): 304 nM

CCCC[C@H]1C(=O)N(C)[C@@H](CCCC)C(=O)N[C@@H](CN)C(=O)N[C@H](C(=O)NCC(N)=O)CSCC(=O)N[C@@H](Cc2ccc(O)cc2)C(=O)N(C)[C@@H](C)C(=O)N[C@@H](CC(N)=O)C(=O)N2CCC[C@H]2C(=O)N[C@@H](Cc2cnc[nH]2)C(=O)N[C@@H](CCC(=O)O)C(=O)N2C[C@H](O)C[C@H]2C(=O)N[C@@H](Cc2c[nH]c3ccccc23)C(=O)N[C@@H](CO)C(=O)N[C@@H](Cc2cn(CC(=O)O)c3ccccc23)C(=O)N1C [Example 6244] ({CH2CO}-Y[NMeA]NPHE[Hyp]WS[Trp(1-CH2COOH)][NMeNle][NMeNle][Dap]CG-NH2; thioether N-14)
IC50 [1]: 1 to 9.9 nM

CCCC[C@H]1C(=O)N(C)[C@@H](CCCC)C(=O)N[C@@H](CCCNC(=N)N)C(=O)N[C@H](C(=O)NCC(N)=O)CSCC(=O)N[C@@H](Cc2ccc(O)cc2)C(=O)N(C)[C@@H](C)C(=O)N[C@@H](CC(N)=O)C(=O)N2CCC[C@H]2C(=O)N[C@@H](Cc2cnc[nH]2)C(=O)N[C@@H](CC(C)C)C(=O)N2C[C@H](O)C[C@H]2C(=O)N[C@@H](Cc2c[nH]c3ccccc23)C(=O)N[C@@H](C(C)O)C(=O)N[C@@H](Cc2c[nH]c3ccccc23)C(=O)N1C (stereo partly drawn) [Example 7075] ({CH2CO}-Y[NMeA]NPHL[Hyp]W[Thr(3ξ)]W[NMeNle][NMeNle]RCG-NH2; thioether N-14)
IC50 [1]: 1 to 9.9 nM
